# Laboratory results: patent publication US20160250285A1, “NEUROPROTECTIVE PEPTIDES” (priority 2013, published 2016)
# pIC50: −log10 of the molar value. Read-outs that look alike come from different tables or passages of the source. Square brackets hold non-standard residues; d marks the D form.
# Assays:
# [1] = system: primary cortical neuronal cultures; conditions: for neuroprotection (neuronal viability): peptide 15 min prior to and during glutamic acid exposure, viability 24 h, MTS; for neuroprotection when added immediately after glutamic acid exposure: 0 min post-insult (FIG. 1d); for neuroprotection when added 15 minutes post-insult: 15 min post-glutamic acid (FIG. 1d)
# Method: Briefly, cortical tissue from E18-E19 Sprague-Dawley rats was dissociated in Dulbecco's modified Eagle medium (DMEM; Invitrogen, Australia) supplemented with 1.3 mM L-cysteine, 0.9 mM NaHCOa, 10 units/ml papain (Sigma, USA) and 50 units/ml DNase (Sigma) and washed in cold DMEM/10% horse serum. Neurons were resuspended in Neurobasal (Invitrogen) containing 2% B27 supplement (B27; Invitrogen). Before seeding, 96-well sized glass wells (6 mm diameter, ProTech, Australia) or 96-well plastic plates (ProSciTech, Australia) were coated with poly-D-lysine overnight ([…]: 50 mg/mL; 70-150 K, Sigma). […] Neurons were plated to obtain ≈10,000 viable neurons for each well on day in vitro 11-12. […] On day in vitro 4 one third of the culture medium was removed and replaced with fresh Neurobasal/2% B27 containing the mitotic inhibitor, cytosine arabinofuraNOside (1 mM final concentration; Sigma). On day in vitro 8 one half of the culture medium was replaced with Neurobasal/2% B27.
# (§1) To induce excitotoxicity, 50 μl of Neurobasal/2% B27 containing glutamic acid (200 μM) or kainic acid (400 μM) or NMDA (200 μM) was added to the culture wells (100 μM glutamic acid, 200 μM kainic acid and NMDA 100 μM final concentration). Cultures were incubated at 37° C. in the CO2 incubator for 5 minutes for glutamic acid, 45 minutes for kainic acid and 10 minutes for NMDA exposure, after which time the media was replaced with 100 μl of 50% Neurobasal/2% N2 supplement (Invitrogen) and 50% balanced salt solution (BSS; see below). Cultures were incubated for a further 24 hours at 37° C. in the CO2 incubator. The untreated controls with or without glutamic acid or kainic acid treatment received the same wash steps and media additions.
# Following this step, cultures were treated as described above. Untreated controls with or without glutamic acid exposure received the same wash steps and media additions. In addition, a post-glutamic acid exposure CPP treatment (5 μM) experiment was performed for the R9 peptide and the JNKI-1D-TAT control peptide.
# For pre-glutamic acid exposure experiments, neurons were exposed to peptide(s) for a 10 minute period, immediately before or 1, 2, 3, 4 or 5 hours prior to glutamic acid exposure. […] At the relevant peptide pre-treatment time, media was removed and replaced with 100 μl of Neurobasal/2%. […] Following 5-minute glutamic acid exposure, neuronal culture wells were treated as described above. For all experiments untreated controls with or without glutamic acid treatment underwent the same incubation steps and media additions.
# Heparin (for injection) was obtained from Pfizer (1000 IU/ml). Two different heparin experiments were performed: 1. Peptides were incubated with heparin (20 IU/ml) in Neurobasal/B27 for 5 minutes at room temperature, before addition to culture wells (50 μl) for 15 minutes at 37° C. in the CO2 incubator. Following the incubation period, media in wells was removed and replaced with 100 μl of Neurobasal/2% B27 containing glutamic acid (100 μM), and subsequently treated as described above; 2. Media in wells was replaced with Neurobasal/2% B27 containing heparin (50 μl; 40 IU/ml) and incubated for 5 minutes at 37° C. in the CO2 incubator. After the incubation period, peptides or glutamate receptor blockers (MK801/CNQX) in Neurobasal/2% B27 (50 μl) were added to the culture wells and cultures incubated for a further 10 minutes at 37° C. in the CO2 incubator. Following the incubation period, media in wells was removed and replaced with 100 μl of Neurobasal/2% B27 containing glutamic acid (100 μM), and subsequently treated as described above. For all experiments, non-heparin treated peptide controls with glutamic acid treatment underwent the same incubation steps and media additions.
# Twenty-four hours after insult, neuronal cultures were examined by light microscopy for qualitative assessment of neuronal cell viability.
# [2] = system: intracellular calcium influx in neuronal cultures; assay: Intracellular calcium influx (Fura-2 AM) after glutamic acid; assay type: cell-based, rat; conditions: peptide 5 μM for 10 min, removed before 100 μM glutamic acid (FIG. 44)
# Method: Fura-2 AM was used for intracellular calcium assessment. Representative fluorescent Fura-2 AM tracers; fluorescence intensity (FI) of neuronal cultures 30 sec before and following addition (arrow) of glutamic acid (100 μM final concentration). Peptides or glutamate receptor blockers were added to neuronal cultures for 10 min and removed (time 0) before glutamic acid. Values are mean±SE; n=3. Peptide concentration was 5 μM.
# Briefly, cortical tissue from E18-E19 Sprague-Dawley rats was dissociated in Dulbecco's modified Eagle medium (DMEM; Invitrogen, Australia) supplemented with 1.3 mM L-cysteine, 0.9 mM NaHCOa, 10 units/ml papain (Sigma, USA) and 50 units/ml DNase (Sigma) and washed in cold DMEM/10% horse serum. Neurons were resuspended in Neurobasal (Invitrogen) containing 2% B27 supplement (B27; Invitrogen). Before seeding, 96-well sized glass wells (6 mm diameter, ProTech, Australia) or 96-well plastic plates (ProSciTech, Australia) were coated with poly-D-lysine overnight (50 ml/well: 50 mg/mL; 70-150 K, Sigma). Excess poly-D-lysine solution was then removed and replaced with Neurobasal (containing 2% B27; 4% fetal bovine serum; 1% horse serum; 62.5 mM glutamate; 25 mM 2-mercaptoethanol; and 30 mg/mL streptomycin and 30 mg/mL penicillin). Neurons were plated to obtain ≈10,000 viable neurons for each well on day in vitro 11-12. Neuronal cultures were maintained in a CO2 incubator (5% CO2, 95% air balance, 98% humidity) at 37° C. On day in vitro 4 one third of the culture medium was removed and replaced with fresh Neurobasal/2% B27 containing the mitotic inhibitor, cytosine arabinofuraNOside (1 mM final concentration; Sigma). On day in vitro 8 one half of the culture medium was replaced with Neurobasal/2% B27. Cultures were used on day in vitro 11 or 12 after which time they routinely consist of >97% neurons and 1-3% astrocytes (Meloni et al. 2001).
# [3] = system: primary cortical neuronal cultures; conditions: values from Meade et al. (2010a,b); read-out: IC50: Glutamic acid model; cited from earlier work
# [4] = system: primary cortical neuronal cultures; conditions: FIG. 2
# Method: Establishment of cortical cultures was as previously described (Meloni et al. 2001). Briefly, cortical tissue from E18-E19 Sprague-Dawley rats was dissociated in Dulbecco's modified Eagle medium (DMEM; Invitrogen, Australia) supplemented with 1.3 mM L-cysteine, 0.9 mM NaHCOa, 10 units/ml papain (Sigma, USA) and 50 units/ml DNase (Sigma) and washed in cold DMEM/10% horse serum. Neurons were resuspended in Neurobasal (Invitrogen) containing 2% B27 supplement (B27; Invitrogen). Before seeding, 96-well sized glass wells (6 mm diameter, ProTech, Australia) or 96-well plastic plates (ProSciTech, Australia) were coated with poly-D-lysine overnight ([…]: 50 mg/mL; 70-150 K, Sigma). Excess poly-D-lysine solution was then removed and replaced with Neurobasal (containing 2% B27; 4% fetal bovine serum; 1% horse serum; […] glutamate; […] 2-mercaptoethanol; and […]). Neurons were plated to obtain ≈10,000 viable neurons for each well on day in vitro 11-12. Neuronal cultures were maintained in a CO2 incubator (5% CO2, 95% air balance, 98% humidity) at 37° C. On day in vitro 4 one third of the culture medium was removed and replaced with fresh Neurobasal/2% B27 containing the mitotic inhibitor, cytosine arabinofuraNOside (1 mM final concentration; Sigma). On day in vitro 8 one half of the culture medium was replaced with Neurobasal/2% B27. Cultures were used on day in vitro 11 or 12 after which time they routinely consist of >97% neurons and 1-3% astrocytes (Meloni et al. 2001).
# as §1, with “Peptides were added to culture wells (96-well plate format) 15 minutes prior to glutamic acid or kainic acid exposure by removing media and adding 50 μl of Neurobasal/2% 327 containing CPPs, control peptides or MK801/CNQX. To” for “To”
# (§2) Twenty-four hours after insult, neuronal cultures were examined by light microscopy for qualitative assessment of neuronal cell viability. Neuronal viability was quantitatively measured by 3-(4,5,dimethyliazol-2-yl)-5-(3-carboxymethoxy-phenyl)-2-(4-sulfophenyl)-2H-tetrazolium salt (MTS) assay (Promega, Australia). The MTS assay measures the cellular conversion of the tetrazolium salt to a water-soluble brown formazan salt, which is detected spectrophotometrically at 490 nm. MTS absorbance data were converted to reflect proportional cell viability relative to both the untreated and treated controls, with the untreated control taken as 100% viability, and presented as mean±SEM. For studies using astrocytes, bEND3, and SH-Y5Y cells, raw MTS data was used to generate graphs. Viability data was analysed by ANOVA, followed by post-hoc Fischer's PLSD test, with P<0.05 values considered statistically significant. Four- to six wells were used in all assays.
# [5] = system: primary cortical neuronal cultures; assay: In vitro ischemia / oxygen-glucose deprivation (OGD) model, neurons; assay type: cell-based, rat; conditions: peptide present during in vitro ischemia and at 50% dose after (FIG. 3a)
# Method: Establishment of cortical cultures was as previously described (Meloni et al. 2001). Briefly, cortical tissue from E18-E19 Sprague-Dawley rats was dissociated in Dulbecco's modified Eagle medium (DMEM; Invitrogen, Australia) supplemented with 1.3 mM L-cysteine, 0.9 mM NaHCOa, 10 units/ml papain (Sigma, USA) and 50 units/ml DNase (Sigma) and washed in cold DMEM/10% horse serum. Neurons were resuspended in Neurobasal (Invitrogen) containing 2% B27 supplement (B27; Invitrogen). Before seeding, 96-well sized glass wells (6 mm diameter, ProTech, Australia) or 96-well plastic plates (ProSciTech, Australia) were coated with poly-D-lysine overnight (50 ml/well: 50 mg/mL; 70-150 K, Sigma). Excess poly-D-lysine solution was then removed and replaced with Neurobasal (containing 2% B27; 4% fetal bovine serum; 1% horse serum; 62.5 mM glutamate; 25 mM 2-mercaptoethanol; and 30 mg/mL streptomycin and 30 mg/mL penicillin). Neurons were plated to obtain ≈10,000 viable neurons for each well on day in vitro 11-12. Neuronal cultures were maintained in a CO2 incubator (5% CO2, 95% air balance, 98% humidity) at 37° C. On day in vitro 4 one third of the culture medium was removed and replaced with fresh Neurobasal/2% B27 containing the mitotic inhibitor, cytosine arabinofuraNOside (1 mM final concentration; Sigma). On day in vitro 8 one half of the culture medium was replaced with Neurobasal/2% B27. Cultures were used on day in vitro 11 or 12 after which time they routinely consist of >97% neurons and 1-3% astrocytes (Meloni et al. 2001).
# The in vitro ischemia model used for primary cortical neuronal cultures was performed as previously described (Meloni et at 2011) Briefly, culture media was removed from wells (glass 96-well plate format) and washed with 315 μl of glucose free balanced salt solution (BSS; mM: 116 NaCl, 5.4 KCl, 1.8 CaCl2, 0.8 MgSO4, 1 NaH2PO4; pH 6.9) before the addition of 60 μl BSS containing cell penetrating or control peptides (see Table 1). A non-peptide positive control consisting of the glutamate receptor blockers (5 μM MK801/5 μM 6-cyano-7-nitroquinoxaline: MK801/CNQX) was also included. In vitro ischemia was initiated by placing wells in an anaerobic incubator (Don Whitely Scientific, England; atmosphere of 5% CO2, 10% H2 and 85% argon, 98% humidity) at 37° C. for 55 minutes. Upon removal from the anaerobic incubator, 60 μl of Neurobasal/2% N2 supplement was added to the wells and cultures incubated for a further 24 hours at 37° C. in the CO2 incubator. Control cultures received the same BSS wash procedures and media additions as ischemic treated cultures before incubation at 37° C. in the CO2 incubator.
# Control cultures underwent the same BSS wash procedures and media additions as OGD treated cultures.
# Twenty-four hours after insult, neuronal cultures were examined by light microscopy for qualitative assessment of neuronal cell viability. Neuronal viability was quantitatively measured by 3-(4,5,dimethyliazol-2-yl)-5-(3-carboxymethoxy-phenyl)-2-(4-sulfophenyl)-2H-tetrazolium salt (MTS) assay (Promega, Australia). The MTS assay measures the cellular conversion of the tetrazolium salt to a water-soluble brown formazan salt, which is detected spectrophotometrically at 490 nm. MTS absorbance data were converted to reflect proportional cell viability relative to both the untreated and treated controls, with the untreated control taken as 100% viability, and presented as mean±SEM. […] Viability data was analysed by ANOVA, followed by post-hoc Fischer's PLSD test, with P<0.05 values considered statistically significant. Four- to six wells were used in all assays.
# [6] = system: primary cortical neuronal cultures; assay: NMDA excitotoxicity model; assay type: cell-based, rat; conditions: peptide 15 min before and during NMDA exposure (FIG. 37)
# Method: Establishment of cortical cultures was as previously described (Meloni et al. 2001). Briefly, cortical tissue from E18-E19 Sprague-Dawley rats was dissociated in Dulbecco's modified Eagle medium (DMEM; Invitrogen, Australia) supplemented with 1.3 mM L-cysteine, 0.9 mM NaHCOa, 10 units/ml papain (Sigma, USA) and 50 units/ml DNase (Sigma) and washed in cold DMEM/10% horse serum. Neurons were resuspended in Neurobasal (Invitrogen) containing 2% B27 supplement (B27; Invitrogen). Before seeding, 96-well sized glass wells (6 mm diameter, ProTech, Australia) or 96-well plastic plates (ProSciTech, Australia) were coated with poly-D-lysine overnight ([…]: 50 mg/mL; 70-150 K, Sigma). […]
# as §2, with “For studies using astrocytes, bEND3, and SH-Y5Y cells, raw MTS data was used to generate graphs. Viability data was analysed by ANOVA, followed by post-hoc Fischer's PLSD test, with P<0.05 values considered statistically significant. Four- to six wells were used in all assays.” left out
# [7] = system: primary cortical neuronal cultures; conditions: values from Meade et al. (2010a,b); read-out: IC50: Kainic acid model; cited from earlier work
Substance,"effect of heparin on neuroprotective action ([1]; heparin 20 IU/ml with peptide or 40 IU/ml on cultures (FIGS. 39, 40))",neuroprotection (neuronal viability) [1],calcium influx after glutamic acid [2],pIC50 [3],neuroprotection [4],neuroprotection [5],neuroprotection when added immediately after glutamic acid exposure [1],neuroprotection when added 15 minutes post-insult [1],"neuroprotection, milder insult ([1]; FIG. 1i, comparison at 0.5 μM and 1 μM)",neuroprotection (neuronal viability) ([1]; listed as TAT-NR29C),neuroprotection [6],neuroprotection when added immediately after glutamic acid exposure ([1]; listed as JNKI-1 D-TAT),neuroprotection when added 15 minutes post-insult ([1]; listed as JNKI-1 D-TAT),neuroprotection (neuronal viability) ([1]; listed as JNKI-1-TATD),pIC50 [7]
"GRKKRRQRRRGGLQGRRRQGYQSIKP [PYC36L-TAT, reference compound]",blocks neuroprotective actions,highly effective,to varying degrees reduced calcium influx,5.82,effective,effective,,,,,,,,,
"H-GRKKRRQRRR-KLSSIESDV-NH2 (H-GRKKRRQRRRKLSSIESDV-NH2) [NR2B9c-TAT, reference compound]",,,to varying degrees reduced calcium influx,,,,did not significantly increase neuronal survival,did not significantly increase neuronal survival,ineffective,ineffective,low level neuroprotection,,,,
"H-tdqsrpvqpflnlttprkprpp-rrrqrrkkrG-NH2 (H-[dT][dD][dQ][dS][dR][dP][dV][dQ][dP][dF][dL][dN][dL][dT][dT][dP][dR][dK][dP][dR][dP][dP][dR][dR][dR][dQ][dR][dR][dK][dK][dR]G-NH2; SMILES CC(C)C[C@@H](NC(=O)[C@@H](Cc1ccccc1)NC(=O)[C@H]1CCCN1C(=O)[C@@H](CCC(N)=O)NC(=O)[C@H](NC(=O)[C@H]1CCCN1C(=O)[C@@H](CCCNC(=N)N)NC(=O)[C@@H](CO)NC(=O)[C@@H](CCC(N)=O)NC(=O)[C@@H](CC(=O)O)NC(=O)[C@H](N)[C@H](C)O)C(C)C)C(=O)N[C@H](CC(N)=O)C(=O)N[C@H](CC(C)C)C(=O)N[C@@H](C(=O)N[C@@H](C(=O)N1CCC[C@@H]1C(=O)N[C@H](CCCNC(=N)N)C(=O)N[C@H](CCCCN)C(=O)N1CCC[C@@H]1C(=O)N[C@H](CCCNC(=N)N)C(=O)N1CCC[C@@H]1C(=O)N1CCC[C@@H]1C(=O)N[C@H](CCCNC(=N)N)C(=O)N[C@H](CCCNC(=N)N)C(=O)N[C@H](CCCNC(=N)N)C(=O)N[C@H](CCC(N)=O)C(=O)N[C@H](CCCNC(=N)N)C(=O)N[C@H](CCCNC(=N)N)C(=O)N[C@H](CCCCN)C(=O)N[C@H](CCCCN)C(=O)N[C@H](CCCNC(=N)N)C(=O)NCC(N)=O)[C@H](C)O)[C@H](C)O) [JNKI-1D-TAT, reference compound]",,highly effective,to varying degrees reduced calcium influx,5.68,effective,,ineffective,ineffective,,,,did not significantly increase neuronal survival,did not significantly increase neuronal survival,neuroprotective,5.19
